Source: patent publication US20110143948A1, “MOLECULAR SIGNATURES AND BIOMARKERS ASSOCIATED WITH MELANOMA AND METHODS OF USE THEREOF” (priority 2008, published 2011)

Test system: ncRNAs (SEQ ID NO 28-89)
Experiment: ncRNA arrays of melanocytes, keratinocytes, normal skin, melanoma cell lines and patient samples
Design: species or system human
Settings: for ncRNA array expression, patient 2: melanoma patient 2 sample compared to normal skin; for ncRNA array expression, patient 3: melanoma patient 3 sample compared to normal skin; for ncRNA array expression, patient 4: melanoma patient 4 sample compared to normal skin; for ncRNA array expression, patient 5: melanoma patient 5 sample compared to normal skin; for ncRNA array expression, patient 6: melanoma patient 6 sample compared to normal skin; for ncRNA array expression, patient 7: melanoma patient 7 sample compared to normal skin; for ncRNA array expression, patient 8: melanoma patient 8 sample compared to normal skin; for ncRNA array expression, patient 9: melanoma patient 9 sample compared to normal skin; for ncRNA array expression, patient 10: melanoma patient 10 sample compared to normal skin; for ncRNA array expression, patient 19: melanoma patient 19 sample compared to normal skin; for ncRNA array expression, patient 20: melanoma patient 20 sample compared to normal skin; for ncRNA array expression, patient 21: melanoma patient 21 sample compared to normal skin; for ncRNA array expression, patient 22: melanoma patient 22 sample compared to normal skin; for ncRNA array expression, patient 23: melanoma patient 23 sample compared to normal skin; for ncRNA array expression, patient 24: melanoma patient 24 sample compared to normal skin; for ncRNA array expression, patient 25: melanoma patient 25 sample compared to normal skin; for ncRNA array expression, patient 26: melanoma patient 26 sample compared to normal skin; for ncRNA array expression, patient 27: melanoma patient 27 sample compared to normal skin; for ncRNA array expression, patient 28: melanoma patient 28 sample compared to normal skin; for ncRNA array expression, patient 29: melanoma patient 29 sample compared to normal skin; for ncRNA array expression, patient 30: melanoma patient 30 sample compared to normal skin
Summary of the method: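 Total RNA from melanocytes, keratinocytes, normal human skin, melanoma cell lines and melanoma patient samples was profiled on an array of >10,000 putative (>200 nt) human and mouse ncRNAs plus RefSeq mRNA probes. Expression was compared with melanocytes or normal skin, keratinocyte signatures were subtracted, and hits were validated by qRT-PCR and Northern blot.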

Row | Substance | ncRNA array expression, patient 2 | ncRNA array expression, patient 3 | ncRNA array expression, patient 4 | ncRNA array expression, patient 5 | ncRNA array expression, patient 6 | ncRNA array expression, patient 7 | ncRNA array expression, patient 8 | ncRNA array expression, patient 9 | ncRNA array expression, patient 10 | ncRNA array expression, patient 19 | ncRNA array expression, patient 20 | ncRNA array expression, patient 21 | ncRNA array expression, patient 22 | ncRNA array expression, patient 23 | ncRNA array expression, patient 24 | ncRNA array expression, patient 25 | ncRNA array expression, patient 26 | ncRNA array expression, patient 27 | ncRNA array expression, patient 28 | ncRNA array expression, patient 29 | also measured
1 | SEQ ID NO 44 (AGCCAACTCACGCTTAGGGAGAACTCATACCGCCTAAATATAAAGGCAATTATATATATA; listed as DNA, chemistry not given here; listed as Homo sapiens) | −1.843 | −1.705 | −1.679 | −1.807 | −1.08 | −1.932 | −2.019 | −1.861 | −0.3103 | −1.83 | −1.651 | −1.7 | −1.029 | −1.95 | −1.768 | −1.979 | −1.501 | −1.744 | −1.679 | −1.809 | ncRNA array expression, patient 30: 0.9814
2 | SEQ ID NO 45 (ATTTAGAGAACATTTAAATCTGTAAGGAAGAAAATAATAACGACTCACAATTACATCATT; listed as DNA, chemistry not given here; listed as Homo sapiens) | −1.688 | −1.56 | −1.5912 | −1.519 | −0.7528 | −0.8782 | −2.042 | −1.8261 | 1.065 | −0.8583 | −1.797 | −1.759 | −1.25 | 0.2281 | −1.588 | −2.096 | −2.174 | −1.86 | −2.069 | −1.422 | ncRNA array expression, patient 30: 0.8792
3 | SEQ ID NO 46 (CTATTGGAGTGCATATAAATTCTTGATAGCACCAGTTCTCAAATATGAGGTGTTAAAAAC; listed as DNA, chemistry not given here; listed as Homo sapiens) | 0.198 | 0.6718 | 1.187 | 0.9853 | 0.04368 | 0.7142 | 1.688 | 5.175 | 1.916 | 2.172 | 0.395 | 0.7531 | −0.4275 | 0.6081 | 0.8675 | 1.428 | 2.919 | 1.824 | 1.253 | 2.278 | ncRNA array expression, patient 30: 0.4452
